The subject of data set [1] is PHH spheroids. Nature of the data set: Toxicity in non-infected and adenovirus (AdGL)-infected PHH spheroids. In kind it is cell-based, human. As to conditions: for EC50: Homo sapiens. As to the method: Cell viability was assessed by determining the ATP content of single PHH spheroids with the CellTiter-Glo Luminescent Cell Viability Assay (Promega, Sweden). At the same time-points, cell culture medium was collected and albumin concentrations were determined by ELISA (Bethyl laboratories, USA). Absolute ATP and albumin values were normalized to spheroid volumes as determined from bright field imaging to compensate for compaction.
A recombinant adenovirus (AdGL) expressing green fluorescent protein (GFP; described in ref. [44]) was added during PHH spheroid seeding at a multiplicity of infection (MOI) of 0.1. PHH were seeded into GravityPLUS hanging-drop 96-well plates (InSphero, Zurich, Switzerland) at 1,500 viable cells per well. Spheroids were transferred to Gravity TRAP 96-well plates (InSphero) on day 7. Culture conditions were identical to the conditions for spheroids formed in ultra-low attachment plates.

The test system of data set [2] is PHH spheroids. The experiment in a line: Chronic toxicity assay in PHH spheroids, viability by cellular ATP content. In kind it is cell-based, human. To be noted: for Fold changes in EC50 vs. 48 h (8 d): 8 d vs 48 h exposure; for Fold changes in EC50 vs. 48 h (28 d): 28 d vs 48 h exposure; for EC50: Homo sapiens. The method, then: Cryopreserved PHH (obtained from […], France or Bioreclamation IVT, USA) or fresh hepatocytes (obtained from patients subject to liver resections at Huddinge University Hospital, Stockholm, Sweden) were used for formation of spheroid cultures. Hepatocytes obtained from patient livers were isolated as previously described. Use of the liver specimens for this purpose was approved by the Ethics Committee at Karolinska Institutet ([…] Stockholm) and studies were carried out in accordance with the approved guidelines. Written informed consent was obtained from all donors of liver material. Cells were seeded into ultra-low attachment 96-well plates (Corning) at 1,500 viable cells per well and subsequently centrifuged at 100 × g for 2 min. Cells were seeded in 100 μl Williams E medium supplemented with 2 mM L-glutamine, 100 units/ml penicillin, 100 μg/ml streptomycin, 10 μg/ml insulin, 5.5 μg/ml transferrin, 6.7 ng/ml sodium selenite, 100 nM dexamethasone, and 10% FBS. Spontaneous self-aggregation of the hepatocytes initiated spheroid formation. From day 4 or 5 after seeding, when the spheroids were sufficiently compact, 50% of the medium was exchanged daily for serum-free medium. Spheroids were maintained in serum-free medium until day 35, with a medium change every 48-72 h. Cell viability was assessed by determining the ATP content of single PHH spheroids with the CellTiter-Glo Luminescent Cell Viability Assay (Promega, Sweden). At the same time-points, cell culture medium was collected and albumin concentrations were determined by ELISA (Bethyl laboratories, USA). Absolute ATP and albumin values were normalized to spheroid volumes as determined from bright field imaging to compensate for compaction. […] Treatment was started on day 8 with repeated dosing of PHH spheroids every second day in serum-free medium as indicated. Cell viability was assessed by determining the ATP content as indicated above. EC50 values were determined using GraphPad Prism (GraphPad Software, USA).

Data set [3] concerns PHH spheroids. The experiment in a line: Bile acid accumulation (tauro-nor-THCA-25-DBD) in PHH spheroids. As to conditions: 5 μM every second day for 1 week; n = 3, p = 0.03. The format is cell-based, human. As to the method: (§1) PHH spheroids were dosed with 5 μM chlorpromazine every second day for 1 week. For the final exposure, 20 μM tauro-nor-THCA-25-DBD (Genomembrane Company Ltd., Yokohoma, Japan) was added. Bile acid accumulation was quantified and normalized to spheroid size using CellProfiler software.

The test system of data set [4] is bile salt export pump (BSEP) mRNA. Nature of the data set: BSEP mRNA expression in PHH spheroids (RT-qPCR). The format is cell-based, human. To be noted: 5 μM. As to the method:
as §1
Total RNA was isolated using Qiazol lysis reagent (Qiagen). RNA was reverse-transcribed into cDNA using SuperScript III reverse transcriptase and RT-qPCR analysis was performed using a TaqMan Universal mix on a 7500 Fast Real-Time PCR system.
On the technique in general: Quantitative PCR measures a nucleic acid by following its amplification.

In data set [5] the test system is PHH spheroids. The experiment in a line: Neutral lipid staining (steatosis) in PHH spheroids. The format is cell-based, human. To be noted: 10 μM co-exposure with CsA 30 μM, 48 h; n = 3, p = 0.009. The method, then: PHH spheroids were treated with 30 μM cyclosporine A (CsA) and/or 10 μM α-tocopherol (α-TOH) as indicated. After 48 h, spheroids were fixed and incubated with HCS LipidTOX Green neutral lipid stain (1:500). CellProfiler software was used to quantify neutral lipid staining.

Data set [6] relates to Kupffer cells in co-culture spheroids. Nature of the data set: LPS-induced IL-6 secretion in PHH/NPC co-culture spheroids (ELISA). In kind it is cell-based, human. To be noted: 10 μg/ml, 48 h; co-culture spheroids compared to PHH spheroids. As to the method: When used, co-cultures of cryopreserved PHH and non-parenchymal cells (NPCs; Bioreclamation IVT) originating from different donors were thawed and seeded at a ratio of 2:1 (PHH:NPC) and 2,000 viable cells per well into ultra-low attachment plates. Functionality of Kupffer cells was assessed by measuring lipopolysaccharide (LPS)-induced interleukin 6 (IL-6) secretion. LPS was added at a concentration of 10 μg/ml and supernatants were collected after 48 h. IL-6 levels were determined via ELISA (Thermo Scientific).
In general terms: An ELISA detects its analyte on a solid surface through an enzyme-linked reagent.

Another data set concerns chimeric TK-NOG mice. Set-up: method as in PMID 24736310. As to conditions: mice carrying human hepatocytes; cited from earlier work.
For data set [7] the following is noted: human plasma Cmax; ref 21 (amiodarone), 22 (bosentan), 23 (diclofenac), 24 (fialuridine), 25 (tolcapone); read-out: In vivo Cmax; cited from earlier work.
In the next data set the test system is patients. On the set-up: method as in PMID 7565947. To be noted: clinical trials, cited from earlier work.
The mark [8] stands for this setting: 672 h, PHH spheroids, viability by ATP content, dosing every second day, 28 days, read-out: EC50 (μM) 28d.
[9] abbreviates: PHH spheroids, viability by ATP content, 48 h exposure, read-out: EC50 (μM) 48h.
Setting [10] is: PHH spheroids, viability by ATP content, dosing every second day, 7d (legend: 8 days), read-out: EC50 (μM) 7d.

Usually EC50 stands for the concentration needed to bring the measured effect to its halfway point. In general, Cmax refers to the highest concentration seen after dosing.

Turning to `N[C@@H]1[C@H]2CN(c3nc4c(cc3F)c(=O)c(C(=O)O)cn4-c3ccc(F)cc3F)C[C@@H]12` [Trovafloxacin, trovafloxacin], the EC50 in the data set on PHH spheroids [1] (non-infected PHH spheroids) worked out at 96.1 µM; in the data set on PHH spheroids [1] (virus-infected PHH spheroids (AdGL, MOI 0.1)), 32.9 µM. Moreover, the “enhancement of toxicity by viral infection” value in the data set with PHH spheroids [1] (infected vs non-infected spheroids, p < 0.001) turned out to be 2.9 fold.
For the compound `Cc1ccc(C(=O)c2cc(O)c(O)c([N+](=O)[O-])c2)cc1` [Tolcapone, tolcapone], the “Fold changes in EC50 vs. 48 h (8 d)” value in the data set on PHH spheroids [2] was determined as 2 fold. Besides, the “Fold changes in EC50 vs. 48 h (28 d)” value in the data set with PHH spheroids [2] stood at 3.4 fold. Moreover, the values for the EC50 in the data set with PHH spheroids [2] (setting [8]), with PHH spheroids [2] (setting [9]) and in the data set on PHH spheroids [2] (setting [10]) were 5.6 µM, 18.8 µM and 9.4 µM, respectively. Moreover, the “EC50 values related to reported in vivo Cmax” value in the data set on PHH spheroids [2] (already after acute dosing) was “lower than the reported in vivo Cmax values”.
Regarding `CN(C)CCCN1c2ccccc2Sc2ccc(Cl)cc21` [chlorpromazine], in the data set with PHH spheroids [3], the “accumulation of fluorescently-labelled bile acid derivative tauro-nor-THCA-25-DBD” value is on record as “significant accumulation”. Also, the “BSEP mRNA expression” value in data set [4] is recorded as “down-regulation”.
For `C[C@H]1COc2c(N3CCN(C)CC3)c(F)cc3c(=O)c(C(=O)O)cn1c23` [levofloxacin], the toxicity observed result with PHH spheroids [1] (infected spheroids) and in the data set on PHH spheroids [1] (non-infected spheroids) was “no toxicity” each time.
Regarding `COc1ccccc1Oc1c(NS(=O)(=O)c2ccc(C(C)(C)C)cc2)nc(-c2ncccn2)nc1OCCO` [Bosentan, bosentan], the “Fold changes in EC50 vs. 48 h (8 d)” value with PHH spheroids [2] came to 3.6 fold. In addition, in the data set with PHH spheroids [2], the “Fold changes in EC50 vs. 48 h (28 d)” value was 6.0 fold. The half-maximal effective concentration (EC50) is 41.8 µM in the data set with PHH spheroids [2] (setting [8]), above 250 µM in the data set on PHH spheroids [2] (setting [9]) and 69.5 µM in the data set on PHH spheroids [2] (setting [10]).
`O=C(O)Cc1ccccc1Nc1c(Cl)cccc1Cl` [Diclofenac, diclofenac]: the EC50 stood at 45.9 µM with PHH spheroids [2] (setting [8]), 191 µM in the data set on PHH spheroids [2] (setting [9]) and 56.8 µM in the data set with PHH spheroids [2] (setting [10]).
For the compound `Cc1c(C)c2c(c(C)c1O)CC[C@@](C)(CCC[C@H](C)CCC[C@H](C)CCCC(C)C)O2` [α-tocopherol], the “protection against cyclosporine A-induced neutral lipid accumulation” value with PHH spheroids [5] was “fully protected”.
Turning to lipopolysaccharide [LPS], the IL-6 secretion entry in data set [6] is “substantial increase”.
`O=c1[nH]c(=O)n([C@@H]2O[C@H](CO)[C@@H](O)[C@@H]2F)cc1I` [Fialuridine, fialuridine]: in the data set on chimeric TK-NOG mice, the hepatotoxicity entry is on record as “induced hepatotoxicity”. Also, the peak concentration (Cmax) in [7] is 1000 nM. Moreover, the patients who died result with patients (of those with severe hepatotoxicity) was “five”. Moreover, the “patients who developed severe hepatotoxicity” value in the data set on patients (several weeks after beginning treatment) is 7/15. Moreover, in the data set with PHH spheroids [2], the “Fold changes in EC50 vs. 48 h (8 d)” value was 142.9 fold. Besides, the “Fold changes in EC50 vs. 48 h (28 d)” value in the data set with PHH spheroids [2] stood at 1000 fold. The EC50 with PHH spheroids [2] (672 h, PHH spheroids, repeated dosing, 4 weeks, read-out: EC50 after 4 weeks) is 0.1 µM; with PHH spheroids [2] (setting [9]), above 100 µM; in the data set with PHH spheroids [2] (setting [10]), 0.7 µM. For the same compound, the “toxicity observed after 48 h” value with PHH spheroids [2] (PHH spheroids, 48 h exposure) was “no toxicity”.

The values are drawn from PMC4855186, “Characterization of primary human hepatocyte spheroids as a model system for drug-induced liver injury, liver function and disease” (Scientific Reports, 2016).
